Source: patent publication US20150094321A1, “COMBINATION” (GlaxoSmithKline LLC, priority 2009, published 2015)

Experiments:
Assay in all cases: Cell growth inhibition assay
Type in all cases: cell-based
KPL-4 = conditions: Homo sapiens, KPL4, KPL-4, breast, HER2+, PIK3CA H1047R; single agent; read-out: IC50 Single Agent (mean +/- std)
Procedure: (§1) Human breast tumor lines. BT-474, HCC1419, HCC1937, HCC1954, HCC202, KPL-1, MDA-MB-157, MDA-MB-175-VII, MDA-MB-361, MDA-MB-453, SK-BR-3, SUM225PE, UACC893, and ZR-75-1; lung tumor line, CALU-3; and melanoma line, CHL-1, were from ATCC. Human breast tumor line JIMT-1 was from European Collection of Cell Cultures (UK). Human breast tumor lines SUM149PT, SUM190PT and SUM52PE were from Asterand. These lines were cultured in RPMI 1640 medium containing 10% fetal bovine serum (FBS). A head and neck tumor line, LICR LON HN5 (HN5), a gift from the Institute of Cancer Research, Surrey, U.K, was cultured in Dulbecco's modified Eagle medium (DMEM) containing 5% FBS; KPL-4 breast tumor cell line was kindly provided by Dr Junichi Kurebayashi (Kawasaki Medical School, Okayama, Japan) and cultured in DMEM containing 5% FBS. JIMT-1 is a line derived from a patient clinically resistant to trastuzumab (Herceptin®). BT-474-J4 is a single cell clone derived from a pool of BT-474 cells that were selected to grow in lapatinib to a concentration of 3 μM.
(§2) All cells were cultured for a minimum of 72 hours prior to cell plating. Cells were assayed in a 96-well tissue culture plate (NUNC 136102) of RPMI medium containing 10% FBS for all cells at 2,000 cells per well except KPL-4 and HN5 which were plated in DMEM containing 5% FBS at 500 cells per well. Approximately 24 hours after plating, cells were exposed to ten, two-fold or three-fold serial dilutions of compound or the combination of the two agents at a constant molar to molar ratio of 1:1 Compound A to Compound B in RPMI media containing 10% FBS or DMEM containing 5% FBS. Cells were incubated in the presence of compounds for 3 days. ATP levels were determined by adding Cell Titer Glo® (Promega) according to the manufacturer's protocol. Briefly, Cell Titer Glo® was added each plate, incubated for 20 minutes then luminescent signal was read on the SpectraMax L plate reader with a 0.5 sec integration time.
(§3) Inhibition of cell growth was estimated after treatment with compound or combination of compounds for three days and comparing the signal to cells treated with vehicle (DMSO). Cell growth was calculated relative to vehicle (DMSO) treated control wells. Concentration of compound that inhibits 50% of control cell growth (IC50) was interpolated using nonlinear regression with the equation, y=(A+(B−A)/(1+(C/x)̂D))), where A is the minimum response (ymin), B is the maximum response (ymax), C is the inflection point of the curve (EC50) and D is the Hill coefficient. […]

MDA-MB-453 = conditions: Homo sapiens, MDA-MB-453, MDA-MB-453, breast, HER2+, PIK3CA H1047R; single agent; read-out: IC50 Single Agent (mean +/- std)
Procedure: as §1, §2, §3

SUM190PT = conditions: Homo sapiens, breast, HER2+, PIK3CA H1047R, single agent, read-out: IC50 Single Agent (mean +/- std)
Procedure: as §1, §2, §3

HCC1954 = conditions: Homo sapiens, HCC1954, HCC1954, breast, HER2+, PIK3CA H1047R; single agent; read-out: IC50 Single Agent (mean +/- std)
Procedure: as §1, §2, §3

MDA-MB-361 = conditions: Homo sapiens, MDA-MB-361, MDA-MB-361, breast, HER2+, PIK3CA E545K; single agent; read-out: IC50 Single Agent (mean +/- std)
Procedure: as §1, §2, §3

UACC893 = conditions: Homo sapiens, UACC-893, UACC893, breast, HER2+, PIK3CA H1047R; single agent; read-out: IC50 Single Agent (mean +/- std)
Procedure: as §1, §2, §3

ZR-75-1 = conditions: Homo sapiens, ZR-75-1, ZR-75-1, breast, PTEN L108R; single agent; read-out: IC50 Single Agent (mean +/- std)
Procedure: as §1, §2, §3

SUM52PE = conditions: Homo sapiens, breast, FGFR2+, WT, single agent, read-out: IC50 Single Agent (mean +/- std)
Procedure: as §1, §2, §3

SUM149PT = conditions: Homo sapiens, breast, PTEN low, single agent, read-out: IC50 Single Agent (mean +/- std)
Procedure: as §1, §2, §3

CHL-1 = conditions: Homo sapiens, CHL-1, CHL-1, melanoma, WT; single agent; read-out: IC50 Single Agent (mean +/- std)
Procedure: as §1, §2, §3

HN5 = conditions: Homo sapiens, HN5, HN5, H&N, EGFR+, WT; single agent; read-out: IC50 Single Agent (mean +/- std)
Procedure: as §1, §2, §3

Calu-3 = conditions: Homo sapiens, Calu-3, Calu-3, lung, HER2+, WT; single agent; read-out: IC50 Single Agent (mean +/- std)
Procedure: as §1, §2, §3

Measured: IC50

CC(=O)Nc1cccc(-n2c(=O)n(C3CC3)c(=O)c3c(Nc4ccc(I)cc4F)n(C)c(=O)c(C)c32)c1 [Compound A, N-{3-[3-cyclopropyl-5-(2-fluoro-4-iodo-phenylamino)-6,8-dimethyl-2,4,7-trioxo-3,4,6,7-tetrahydro-2H-pyrido[4,3-d]pyrimidin-1-yl]phenyl}acetamide]
not listed: SUM149PT | CHL-1 | HN5 | Calu-3
> 1000 nM: all other assays above

Cn1ncc(Cl)c1-c1cc(C(=O)N[C@H](CN)Cc2ccc(F)c(F)c2)oc1Cl [Compound B, N-{(1S)-2-amino-1-[(3,4-difluorophenyl)methyl]ethyl}-5-chloro-4-(4-chloro-1-methyl-1H-pyrazol-5-yl)-2-furancarboxamide]
> 1000 nM: SUM149PT | CHL-1 | HN5 | Calu-3
